Reference: the supplement of paper PMC10307832

Tests used:
Experiment in all cases: relative viability (nuclei count vs DMSO), 5 days (fraction); higher = more cells survive
Irinotecan + Linsitinib = compound: CCc1c2c(nc3ccc(OC(=O)N4CCC(N5CCCCC5)CC4)cc13)-c1cc3c(c(=O)n1C2)COC(=O)[C@]3(O)CC [Irinotecan] + C[C@]1(O)C[C@@H](c2nc(-c3ccc4ccc(-c5ccccc5)nc4c3)c3c(N)nccn32)C1 [Linsitinib] (partner 1 µM)
How it was run: (§1)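 Each reported value is a median over duplicate plates. It expresses relative viability: treated-well nuclei count divided by vehicle-well nuclei count. Lung cancer cell lines in 1536-well plates were dosed by pin tool a day after seeding, alone with one drug or with a fixed anchor-drug dose plus five library-drug doses (not always all listed) in √10 steps, and nuclei were counted after 5 days.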

RU-SKI 43 + Pemetrexed = compound: CC[C@@H](C)CNCC(=O)N1CCC2=C([C@@H]1COC3=CC=CC(=C3)C)C=CS2 [RU-SKI 43] + Nc1nc2[nH]cc(CCc3ccc(C(=O)N[C@@H](CCC(=O)O)C(=O)O)cc3)c2c(=O)[nH]1 [Pemetrexed] (partner 0.2 µM)
How it was run: as §1

MK-8033 + Lapatinib = compound: Cn1cc(-c2cnc3ccc4ccc(CS(=O)(=O)NCc5ccccn5)cc4c(=O)c3c2)cn1 [MK-8033] + CS(=O)(=O)CCNCc1ccc(-c2ccc3ncnc(Nc4ccc(OCc5cccc(F)c5)c(Cl)c4)c3c2)o1 [Lapatinib] (partner 2 µM)
How it was run: as §1

RU-SKI 43 + Dasatinib = compound: CC[C@@H](C)CNCC(=O)N1CCC2=C([C@@H]1COC3=CC=CC(=C3)C)C=CS2 [RU-SKI 43] + Cc1nc(Nc2ncc(C(=O)Nc3c(C)cccc3Cl)s2)cc(N2CCN(CCO)CC2)n1 [Dasatinib] (partner 0.075 µM)
How it was run: as §1

## UMC-11
Irinotecan + Linsitinib; first compound 0.6325 µM
  relative viability: 0.724
Irinotecan + Linsitinib; first compound 2 µM
  relative viability: 0.49
Irinotecan + Linsitinib; first compound 6.325 µM
  relative viability: 0.281
Irinotecan + Linsitinib; first compound 20 µM
  relative viability: 0.22
RU-SKI 43 + Pemetrexed; first compound 0.1 µM
  relative viability: 0.871
RU-SKI 43 + Pemetrexed; first compound 0.3162 µM
  relative viability: 0.951
RU-SKI 43 + Pemetrexed; first compound 1 µM
  relative viability: 0.91
RU-SKI 43 + Pemetrexed; first compound 3.162 µM
  relative viability: 0.824
RU-SKI 43 + Pemetrexed; first compound 10 µM
  relative viability: 0.837
MK-8033 + Lapatinib; first compound 0.02 µM
  relative viability: 1.02
MK-8033 + Lapatinib; first compound 0.06325 µM
  relative viability: 0.522
MK-8033 + Lapatinib; first compound 0.2 µM
  relative viability: 0.866
MK-8033 + Lapatinib; first compound 0.6325 µM
  relative viability: 1.04
MK-8033 + Lapatinib; first compound 2 µM
  relative viability: 0.944
RU-SKI 43 + Dasatinib; first compound 0.1 µM
  relative viability: 0.526
RU-SKI 43 + Dasatinib; first compound 0.3162 µM
  relative viability: 0.685
RU-SKI 43 + Dasatinib; first compound 1 µM
  relative viability: 0.577
RU-SKI 43 + Dasatinib; first compound 3.162 µM
  relative viability: 0.516
RU-SKI 43 + Dasatinib; first compound 10 µM
  relative viability: 0.471
